Here are results for one molecule from patent US12673039B2, “Methods of inducing autophagy using coumarin derivatives and related compounds” (Buck Institute for Research on Aging, priority 2019, dated 2026).

The subject of the test is C. elegans. Kind of test: C. elegans lifespan assays. The format is in vivo. The source says:
FIG. 21, panels A-F: AIC106 prevents neuronal loss and proteotoxicity in strains expressing human neurotoxic proteins. Panel A) Dopaminergic neuronal loss in day-5 UA44 worms was quantified by scoring percentage of worms with intact 4-CEP neurons in AIC106 and DMSO-control treatment. [N=3 independent experiments (mean±SD). ***p<0.001, by one-way ANOVA with Tukey's multiple comparisons test]. Motor function in (panel B) day-7 NL5901 and (panel C) day-5 CL2006 worms were quantified by scoring number of thrashes for an individual worm over the period of 30 seconds (dots) in AIC106 and DMSO-control treatment. [N=3 independent experiments (mean±SD). **p<0.01, ***p<0.001 and ****p<0.0001, by one-way ANOVA with Tukey's multiple comparisons test]. Panel D) Motor function in temperature sensitive (enhanced paralysis at 25° C.) CL4176 worms was determined by scoring percent of worms paralyzed in AIC106 and DMSO-control treatment. [N=3 independent experiments (mean±SD). **p<0.01, by one-way ANOVA with Tukey's multiple comparisons test]. Panel E) Lifespan analysis of CL6049 worms exposed to AIC106 and DMSO-control. [N=2 independent experiments, Treatment (median survival in days, P value compared to DMSO-control): DMSO-control (12), AIC106 10 μM (15, p<0.01), 20 μM (15, p<0.0001) and 50 μM (17, p<0.0001). P-value calculated by Logrank test]. Panel F) Effect of AIC106 on polyQ40 aggregation was determined by scoring number of polyQ40-YFP fluorescent puncta in an individual AM141 worm treated with AIC106 and DMSO-control. [N=3 independent experiments (mean±SD). *p<0.05 and ***p<0.001, by one-way ANOVA with Tukey's multiple comparisons test].
FIG. 27, panels A-C: AIC106 induces mitophagy and increases lifespan. Panel A) Relative fold change in mRNA of key mitophagy genes including dct-1, pink-1 and pdr-1 was quantified by qRT-PCR after DMSO-control and AIC106 24 hours treatment in young adult N2 and hlh-30(tm1978) mutants. [N=3 independent experiments (mean±SD). **p<0.01 and ****p<0.0001, by two-way ANOVA with Sidak's multiple comparisons test]. Short exposure (1 week) of AIC106 increased survival of (panel B) wild type N2: DMSO-control (median-12 days), AIC106 50 μM (median-15 days, p<0.0001) and (panel C) mitophagy deficient pdr-1(tm598): mutant DMSO-control (median-15 days), AIC106 50 μM (median −17 days, p<0.001)]. [N=3 independent experiments, P value compared to respective DMSO-control and calculated by Logrank test).
FIG. 28, panels A-B: AIC106 prevents neuronal loss and proteotoxicity in strains expressing human neurotoxic proteins. Panel A) Motor function in day-7 NL5901 were quantified by scoring number of thrashes for an individual worm over the period of 30 seconds (dots) in AIC106 and DMSO-control treatment. [N=3 independent experiments (mean±SD). ***p<0.001 and ****p<0.0001, by one-way ANOVA with Tukey's multiple comparisons test]. Panel B) Lifespan analysis of CL6049 worms exposed to AIC106 and DMSO-control. [N=2 independent experiments, Treatment (median survival in days, P value compared to DMSO-control): DMSO-control RNAi (18), CL6049-AIC106 control RNAi (21, p<0.0001), CL6049-AIC106 hlh-30 RNAi (17, p<0.0001) and 50 μM (17, p<0.0001). P-value calculated by Logrank test].
Lifespan assays for CL6049 and pdr-1(tm598) strains was performed after treating day-1 adult worms with DMSO or AIC106. A synchronized 35-40 young day-1 adult worms were transferred to each 35 mm compound-treated plates supplemented with FuDR containing control DMSO or AIC106 and kept at 20° C. Worms were scored as alive, dead, or lost every alternate day. […] Worms that died from causes other than aging, such as sticking to the plate walls, internal hatching of eggs (bagging), or gonadal extrusion were censored as lost. Worms were transferred to fresh-drugged plates every 3-5 days. All lifespan experiments were performed at 20° C.

Regarding `O=c1oc2c3c4c(cc2c2c1CCC2)CCCN4CCC3` [C1, 2,3,6,7,10,11-Hexahydro-1H,5H-cyclopenta(3,4)(1)benzopyrano(6,7,8-ij)quinolizin-12(9H)-one], the median survival (CL6049, 50 μM as listed in FIG. 28 panel B legend) stood at 17 days; the median survival (CL6049, control RNAi, DMSO-control RNAi 18) stood at 21 days; the median survival (CL6049, hlh-30 RNAi) was 17 days; the median survival (CL6049 worms, 10 μM, DMSO-control 12) was 15 days; the median survival (CL6049 worms, 20 μM, DMSO-control 12) was 15 days; the median survival (CL6049 worms, 50 μM, DMSO-control 12) is 17 days. Besides, the “human TDP-43 toxicity (survival)” value (CL6049 worms, dose dependent) is recorded as “protected against human TDP-43 toxicity”. Further, the lifespan result (short treatment (1 week post-development)) was “significant increase in lifespan of both wild type N2 and pdr-1 mutant”.
